Test results as given in patent US20250236608A1, “EGFR INHIBITORS” (Blueprint Medicines Corporation, priority 2022, published 2025).

Columns and labels:
[1] = molecular target: EGFR L858R (Homo sapiens (Human), UniProt P00533, L858R); experiment: Biochemical EGFR inhibition assay, EGFR L858R; conditions: Caliper mobility shift; 1.0 mM ATP or ATP Km; read-out: Enz EGFR_L858R IC50
[2] = molecular target: EGFR (d746-750) (Homo sapiens (Human), UniProt P00533, DEL746-750); experiment: Biochemical EGFR inhibition assay, EGFR (d746-750); conditions: Caliper mobility shift; 1.0 mM ATP or ATP Km; read-out: Enz EGFR_Exon19-del746-750 IC50
EGFR (d746-750), sequence (P00533 other isoform, or with tags, fused parts or gaps del 1-694/del 746-750 limits assumed): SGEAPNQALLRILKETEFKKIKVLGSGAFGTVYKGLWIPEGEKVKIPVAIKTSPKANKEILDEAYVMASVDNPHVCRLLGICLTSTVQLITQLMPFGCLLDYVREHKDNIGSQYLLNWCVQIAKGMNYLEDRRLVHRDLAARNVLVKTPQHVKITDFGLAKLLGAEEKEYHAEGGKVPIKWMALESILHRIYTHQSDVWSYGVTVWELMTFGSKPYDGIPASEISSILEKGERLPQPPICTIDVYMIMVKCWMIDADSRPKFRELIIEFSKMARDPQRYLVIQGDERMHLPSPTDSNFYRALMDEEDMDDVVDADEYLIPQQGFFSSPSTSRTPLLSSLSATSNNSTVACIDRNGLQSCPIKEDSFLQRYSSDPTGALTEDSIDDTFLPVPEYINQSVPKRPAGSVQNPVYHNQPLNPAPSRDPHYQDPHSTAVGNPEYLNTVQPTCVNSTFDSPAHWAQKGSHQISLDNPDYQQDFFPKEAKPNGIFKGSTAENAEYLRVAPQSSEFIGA

[3] = molecular target: pEGFR (Tyr1068) in PC-9 cells (Ex19Del) (Homo sapiens (Human), UniProt P00533, DEL746-750); experiment: PC-9 pEGFR AlphaLISA assay; format: cell-based; conditions: 4 hours incubation, p-EGFR (Tyr1068) AlphaLISA, read-out: Ext pEGFR_PC-9 Ex19Del IC50
pEGFR (Tyr1068) in PC-9 cells (Ex19Del), sequence (P00533 other isoform, or with tags, fused parts or gaps del 746-750): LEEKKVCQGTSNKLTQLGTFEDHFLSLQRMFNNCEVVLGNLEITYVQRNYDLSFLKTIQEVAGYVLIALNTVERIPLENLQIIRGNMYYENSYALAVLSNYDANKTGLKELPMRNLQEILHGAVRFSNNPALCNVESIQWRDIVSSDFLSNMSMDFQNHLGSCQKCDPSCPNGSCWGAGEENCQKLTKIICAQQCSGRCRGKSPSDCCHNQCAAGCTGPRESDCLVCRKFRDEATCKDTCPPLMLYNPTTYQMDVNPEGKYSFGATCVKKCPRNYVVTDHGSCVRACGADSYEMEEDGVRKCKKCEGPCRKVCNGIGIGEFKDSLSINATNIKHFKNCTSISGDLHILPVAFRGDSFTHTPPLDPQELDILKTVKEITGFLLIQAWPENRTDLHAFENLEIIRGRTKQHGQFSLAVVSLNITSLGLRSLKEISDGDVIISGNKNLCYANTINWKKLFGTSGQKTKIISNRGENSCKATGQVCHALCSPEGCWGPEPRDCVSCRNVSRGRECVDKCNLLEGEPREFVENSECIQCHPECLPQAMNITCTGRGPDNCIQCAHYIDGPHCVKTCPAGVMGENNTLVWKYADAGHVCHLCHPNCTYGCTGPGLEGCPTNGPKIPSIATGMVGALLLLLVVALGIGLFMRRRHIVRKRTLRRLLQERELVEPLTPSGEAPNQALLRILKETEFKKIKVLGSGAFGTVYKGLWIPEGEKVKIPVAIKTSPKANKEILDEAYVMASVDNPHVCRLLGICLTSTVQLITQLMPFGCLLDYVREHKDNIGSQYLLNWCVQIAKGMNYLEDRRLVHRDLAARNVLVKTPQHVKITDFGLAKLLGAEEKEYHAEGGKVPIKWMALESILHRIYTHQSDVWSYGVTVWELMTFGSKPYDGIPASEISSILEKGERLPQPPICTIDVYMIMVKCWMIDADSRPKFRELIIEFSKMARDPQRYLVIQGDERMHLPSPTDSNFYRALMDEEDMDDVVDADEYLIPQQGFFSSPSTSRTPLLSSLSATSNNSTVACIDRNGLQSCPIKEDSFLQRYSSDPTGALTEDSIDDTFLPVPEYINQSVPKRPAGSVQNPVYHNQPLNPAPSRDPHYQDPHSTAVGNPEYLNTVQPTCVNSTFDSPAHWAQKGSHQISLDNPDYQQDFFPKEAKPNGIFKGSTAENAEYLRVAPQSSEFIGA
Outline: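 Compounds are added in ten 4-fold dilutions to adherent cells grown in serum-containing (10% FBS) phenol-free DMEM and left for 4 hours at 37° C. Phosphorylated receptor in lysates is quantified by bead-based AlphaLISA. IC50 values derive from inhibition plotted against log dose.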

EGFR L858R, sequence (P00533 25-1210 L858R): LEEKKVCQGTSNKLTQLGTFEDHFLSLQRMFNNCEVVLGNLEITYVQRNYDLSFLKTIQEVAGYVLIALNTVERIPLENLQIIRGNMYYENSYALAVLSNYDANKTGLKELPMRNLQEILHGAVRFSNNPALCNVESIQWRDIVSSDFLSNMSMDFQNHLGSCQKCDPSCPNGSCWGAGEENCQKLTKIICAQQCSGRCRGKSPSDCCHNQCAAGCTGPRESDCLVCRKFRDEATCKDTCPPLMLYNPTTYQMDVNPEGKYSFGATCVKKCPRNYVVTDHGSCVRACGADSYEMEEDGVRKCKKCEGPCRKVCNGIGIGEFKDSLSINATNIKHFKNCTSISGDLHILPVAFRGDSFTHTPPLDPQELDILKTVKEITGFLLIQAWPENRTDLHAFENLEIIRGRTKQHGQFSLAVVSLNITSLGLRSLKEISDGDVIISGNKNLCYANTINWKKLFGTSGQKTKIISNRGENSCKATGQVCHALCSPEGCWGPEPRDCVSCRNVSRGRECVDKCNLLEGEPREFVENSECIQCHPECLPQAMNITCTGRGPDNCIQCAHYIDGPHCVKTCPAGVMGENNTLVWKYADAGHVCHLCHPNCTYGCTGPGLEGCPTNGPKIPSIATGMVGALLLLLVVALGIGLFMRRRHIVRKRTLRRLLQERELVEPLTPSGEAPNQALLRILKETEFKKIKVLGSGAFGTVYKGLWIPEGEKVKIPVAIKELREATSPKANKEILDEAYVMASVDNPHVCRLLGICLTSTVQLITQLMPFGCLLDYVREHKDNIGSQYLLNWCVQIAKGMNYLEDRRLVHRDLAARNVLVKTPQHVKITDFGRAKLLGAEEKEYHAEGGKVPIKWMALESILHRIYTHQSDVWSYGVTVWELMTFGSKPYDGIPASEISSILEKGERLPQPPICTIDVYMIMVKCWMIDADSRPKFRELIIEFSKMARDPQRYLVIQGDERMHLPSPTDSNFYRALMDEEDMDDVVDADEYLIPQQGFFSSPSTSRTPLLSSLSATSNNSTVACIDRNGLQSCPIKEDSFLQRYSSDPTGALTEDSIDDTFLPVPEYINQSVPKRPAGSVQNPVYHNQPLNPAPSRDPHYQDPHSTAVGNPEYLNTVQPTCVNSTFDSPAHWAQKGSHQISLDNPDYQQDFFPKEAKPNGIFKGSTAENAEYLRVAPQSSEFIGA

SMILES: COc1cc2ncnc(-c3cn(C)nc3-c3ccccc3)c2nc1O[C@@H](C)c1cccnc1F [Example 47, (S)-6-(1-(2-fluoropyridin-3-yl)ethoxy)-7-methoxy-4-(1-methyl-3-phenyl-1H-pyrazol-4-yl)pyrido[3,2-d]pyrimidine]
- IC50 [1]: 2.6 nM
- IC50 [2]: 1.4 nM
- IC50 [3]: 2.1 nM

SMILES: COc1cc2ncnc(-c3cn(C)nc3-c3ccccc3)c2nc1NC(=O)[C@]1(C(F)(F)F)CCCN1C (single isomer, unassigned) [Example 430, (S)—N-(7-methoxy-4-(1-methyl-3-phenyl-1H-pyrazol-4-yl)pyrido[3,2-d]pyrimidin-6-yl)-1-methyl-2-(trifluoromethyl) pyrrolidine-2-carboxamide or (R)—N-(7-methoxy-4-(1-methyl-3-phenyl-1H-pyrazol-4-yl)pyrido[3,2-d]pyrimidin-6-yl)-1-methyl-2-(trifluoromethyl) pyrrolidine-2-carboxamide]
- IC50 [1]: 19 nM
- IC50 [2]: 3.7 nM
- IC50 [3]: 16 nM

SMILES: COc1cc2ncnc(-c3cn(C)nc3-c3ccccc3)c2cc1-c1cnc(C(C)(C)O)s1 [Example 149, 2-(5-(7-methoxy-4-(1-methyl-3-phenyl-1H-pyrazol-4-yl)quinazolin-6-yl)thiazol-2-yl) propan-2-ol]
- IC50 [1]: 4.9 nM
- IC50 [2]: 2.1 nM
- IC50 [3]: 12.8 nM

SMILES: COc1cc2ncnc(-c3cn(C)nc3-c3ccccc3)c2cc1O[C@@H]1CCN(C)C[C@H]1F [Example 1, 6-(((3R,4R)-3-fluoro-1-methylpiperidin-4-yl)oxy)-7-methoxy-4-(1-methyl-3-phenyl-1H-pyrazol-4-yl)quinazoline]
- IC50 [1]: 4.2 nM
- IC50 [2]: 1.8 nM
- IC50 [3]: 4.2 nM

SMILES: COc1cc2ncnc(-c3cn(C)nc3-c3ccccc3)c2cc1-c1cccc2c1nc(CO)n2C [Example 148, (4-(7-methoxy-4-(1-methyl-3-phenyl-1H-pyrazol-4-yl)quinazolin-6-yl)-1-methyl-1H-benzo[d]imidazol-2-yl)methanol]
- IC50 [1]: 7 nM
- IC50 [2]: 3 nM
- IC50 [3]: 8.3 nM

SMILES: CCOc1cc2ncnc(-c3cn(CC)nc3-c3ccccc3)c2cc1[C@H](C)O (single isomer, unassigned) [Example 107, (S)-1-(7-ethoxy-4-(1-ethyl-3-phenyl-1H-pyrazol-4-yl)quinazolin-6-yl)ethan-1-ol or (R)-1-(7-ethoxy-4-(1-ethyl-3-phenyl-1H-pyrazol-4-yl)quinazolin-6-yl)ethan-1-ol]
- IC50 [1]: 1.3 nM
- IC50 [2]: 0.6 nM
- IC50 [3]: 3.3 nM

SMILES: COc1cc2ncnc(-c3cn(C)nc3-c3ccccc3)c2nc1NC(=O)C1(C(F)(F)F)CCOCC1 [Example 383, N-(7-methoxy-4-(1-methyl-3-phenyl-1H-pyrazol-4-yl)pyrido[3,2-d]pyrimidin-6-yl)-4-(trifluoromethyl)tetrahydro-2H-pyran-4-carboxamide]
- IC50 [1]: 4.5 nM
- IC50 [2]: 1.7 nM
- IC50 [3]: 5.7 nM

SMILES: COc1cc2ncnc(-c3cn(C)nc3-c3ccccc3)c2cc1OC(=O)N1CCOCC12CC2 [Example 65, 7-methoxy-4-(1-methyl-3-phenyl-1H-pyrazol-4-yl)quinazolin-6-yl 7-oxa-4-azaspiro[2.5]octane-4-carboxylate]
- IC50 [1]: 6.1 nM
- IC50 [2]: 2.5 nM
- IC50 [3]: 2.5 nM

SMILES: COc1cc2ncnc(-c3cn(C)nc3-c3ccccc3)c2cc1NC(=O)[C@H]1CCN1C (single isomer, unassigned) [Example 253, (R)—N-(7-methoxy-4-(1-methyl-3-phenyl-1H-pyrazol-4-yl)quinazolin-6-yl)-1-methylazetidine-2-carboxamide or (S)—N-(7-methoxy-4-(1-methyl-3-phenyl-1H-pyrazol-4-yl)quinazolin-6-yl)-1-methylazetidine-2-carboxamide]
- IC50 [1]: 2.4 nM
- IC50 [2]: 1.9 nM
- IC50 [3]: 3.9 nM

SMILES: COc1cc2ncnc(-c3cn(C)nc3-c3ccccc3)c2cc1NC(=O)C1(C)COC1 [Example 345, N-(7-methoxy-4-(1-methyl-3-phenyl-1H-pyrazol-4-yl)quinazolin-6-yl)-3-methyloxetane-3-carboxamide]
- IC50 [1]: 4.7 nM
- IC50 [2]: 1.9 nM
- IC50 [3]: 7.8 nM

SMILES: COc1cc2ncnc(-c3cn(C)nc3-c3ccc(F)cc3)c2nc1NC(=O)[C@@]12CN(C)C[C@@H]1C2(F)F (single isomer, unassigned) [Example 426, (1S,5R)-6,6-difluoro-N-(4-(3-(4-fluorophenyl)-1-methyl-1H-pyrazol-4-yl)-7-methoxypyrido[3,2-d]pyrimidin-6-yl)-3-methyl-3-azabicyclo[3.1.0]hexane-1-carboxamide or (1R,5S)-6,6-difluoro-N-(4-(3-(4-fluorophenyl)-1-methyl-1H-pyrazol-4-yl)-7-methoxypyrido[3,2-d]pyrimidin-6-yl)-3-methyl-3-azabicyclo[3.1.0]hexane-1-carboxamide]
- IC50 [1]: 2.8 nM
- IC50 [2]: 1.1 nM
- IC50 [3]: 1.3 nM

SMILES: COc1cc2ncnc(-c3cn(C)nc3-c3ccccc3)c2cc1NC(=O)c1ccccc1N1CCNCC1 [Example 227, N-(7-methoxy-4-(1-methyl-3-phenyl-1H-pyrazol-4-yl)quinazolin-6-yl)-2-(piperazin-1-yl)benzamide]
- IC50 [1]: 15.2 nM
- IC50 [2]: 2.7 nM
- IC50 [3]: 6.7 nM

SMILES: COc1cc2ncnc(-c3cn(C)nc3-c3ccccc3)c2cc1NC(=O)C1C2COCC21 (stereo not drawn) [Example 223, N-(7-methoxy-4-(1-methyl-3-phenyl-1H-pyrazol-4-yl)quinazolin-6-yl)-3-oxabicyclo[3.1.0]hexane-6-carboxamide]
- IC50 [1]: 2.9 nM
- IC50 [2]: 2.1 nM
- IC50 [3]: 3.2 nM

SMILES: CCC(=O)Nc1cc2c(-c3cn(C)nc3-c3ccccc3)ncnc2cc1-c1ncccn1 [Example 449, N-(4-(1-methyl-3-phenyl-1H-pyrazol-4-yl)-7-(pyrimidin-2-yl)quinazolin-6-yl)propionamide]
- IC50 [1]: 1.3 nM
- IC50 [2]: 0.9 nM
- IC50 [3]: 1.9 nM

SMILES: COc1cc2ncnc(-c3cn(C)nc3-c3ccccc3)c2cc1NC(=O)c1cnn(CC(F)(F)F)c1 [Example 203, N-(7-methoxy-4-(1-methyl-3-phenyl-1H-pyrazol-4-yl)quinazolin-6-yl)-1-(2,2,2-trifluoroethyl)-1H-pyrazole-4-carboxamide]
- IC50 [1]: 2.1 nM
- IC50 [2]: 1.1 nM
- IC50 [3]: 4.9 nM

SMILES: COc1cc2ncnc(-c3cn(CC(F)F)nc3-c3ccccc3)c2cc1NC(=O)c1cccnc1 [Example 353, N-(4-(1-(2,2-difluoroethyl)-3-phenyl-1H-pyrazol-4-yl)-7-methoxyquinazolin-6-yl)nicotinamide]
- IC50 [1]: 2.3 nM
- IC50 [2]: 1.3 nM
- IC50 [3]: 1.6 nM

SMILES: CCOc1cc2ncnc(-c3cn(C)nc3-c3ccccc3)c2nc1NC(=O)[C@]12COC[C@H]1C2 (single isomer, unassigned) [Example 379, (1S,5S)—N-(7-ethoxy-4-(1-methyl-3-phenyl-1H-pyrazol-4-yl)pyrido[3,2-d]pyrimidin-6-yl)-3-oxabicyclo[3.1.0]hexane-1-carboxamide or (1R,5R)—N-(7-ethoxy-4-(1-methyl-3-phenyl-1H-pyrazol-4-yl)pyrido[3,2-d]pyrimidin-6-yl)-3-oxabicyclo[3.1.0]hexane-1-carboxamide]
- IC50 [1]: 2.5 nM
- IC50 [2]: 0.7 nM
- IC50 [3]: 0.8 nM

SMILES: CN(C)C12CC(C(=O)Nc3nc4c(-c5cn(C)nc5-c5ccc(F)cc5)ncnc4cc3OC(F)F)(C1)C2 [Example 466, N-[7-(difluoromethoxy)-4-[3-(4-fluorophenyl)-1-methyl-1H-pyrazol-4-yl]pyrido[3,2-d]pyrimidin-6-yl]-3-(dimethylamino) bicyclo[1.1.1]pentane-1-carboxamide]
- IC50 [1]: 39 nM
- IC50 [2]: 7.3 nM
- IC50 [3]: 31.2 nM

SMILES: CCOc1cc2ncnc(-c3cn(C)nc3-c3ccccc3)c2cc1NC(=O)C1CC1 [Example 306, N-(7-ethoxy-4-(1-methyl-3-phenyl-1H-pyrazol-4-yl)quinazolin-6-yl)cyclopropanecarboxamide]
- IC50 [1]: 1.4 nM
- IC50 [2]: 1.1 nM
- IC50 [3]: 0.6 nM

SMILES: COc1cc2ncnc(-c3cn(C)nc3-c3ccccc3)c2cc1OC(=O)N1C[C@H](C)OC[C@@H]1C (racemic) [Example 92, cis-rac-7-methoxy-4-(1-methyl-3-phenyl-1H-pyrazol-4-yl)quinazolin-6-yl (2R,5S)-2,5-dimethylmorpholine-4-carboxylate or trans-rac-7-methoxy-4-(1-methyl-3-phenyl-1H-pyrazol-4-yl)quinazolin-6-yl (2S,5S)-2,5-dimethylmorpholine-4-carboxylate]
- IC50 [1]: 9.3 nM
- IC50 [2]: 3.4 nM
- IC50 [3]: 13.4 nM

SMILES: COc1cc2ncnc(-c3cn(C)nc3-c3ccccc3F)c2cc1NC(=O)[C@]12C[C@H]1CN(C)C2 (single isomer, unassigned) [Example 255, (1R,5R)—N-(4-(3-(2-fluorophenyl)-1-methyl-1H-pyrazol-4-yl)-7-methoxyquinazolin-6-yl)-3-methyl-3-azabicyclo[3.1.0]hexane-1-carboxamide or (1S,5S)—N-(4-(3-(2-fluorophenyl)-1-methyl-1H-pyrazol-4-yl)-7-methoxyquinazolin-6-yl)-3-methyl-3-azabicyclo[3.1.0]hexane-1-carboxamide]
- IC50 [1]: 2.7 nM
- IC50 [2]: 1.8 nM
- IC50 [3]: 3.8 nM

SMILES: COc1cc2ncnc(-c3cn(C)nc3-c3ccccc3)c2cc1NC(=O)C1(CN(C)C)CC1 [Example 189, 1-((dimethylamino)methyl)-N-(7-methoxy-4-(1-methyl-3-phenyl-1H-pyrazol-4-yl)quinazolin-6-yl)cyclopropane-1-carboxamide]
- IC50 [1]: 4 nM
- IC50 [2]: 1.9 nM
- IC50 [3]: 4.3 nM
